Data reported in publication PMC4634205 (Cancer research, 2015).
“Also recorded” adds a separate entry of the source. Structures can show the parent of a compound that is named as a salt. Where two headings read alike, the source gives them in different places.

How the values were obtained:
[1] = Vemurafenib pharmacokinetics in huPXR/huCAR/huCYP3A4/3A7 mice; type: in vivo, mouse; conditions: for AUC: AUCall of vemurafenib
[2] = test system: Cyp2b; test: Western blot of hepatic microsomal Cyp2b; type: in vivo, mouse; conditions: huPXR/huCAR/huCYP3A4/3A7 mice
[3] = test system: CYP3A4
[4] = type: in vivo, mouse
[5] = test system: SLCO1B1; conditions: cited from earlier work
[6] = test system: OH-vemurafenib formation in pooled HLM; test: Inhibition of OH-vemurafenib formation in pooled HLM by CYP inhibitors; type: in vitro ADME, human; conditions: pooled HLM 0.2 mg/mL, 60 μM vemurafenib, 10 min; 1 μM ketoconazole, 2 μM sulfaphenazole
[7] = test system: Abcb1a; test: TaqMan RT-PCR of small intestinal Abcb1a mRNA; type: in vivo, mouse
[8] = test system: Abcb1b; test: TaqMan RT-PCR of small intestinal Abcb1b mRNA; type: in vivo, mouse
[9] = test system: Abcg2; test: TaqMan RT-PCR of small intestinal Abcg2 mRNA; type: in vivo, mouse; conditions: huPXR/huCAR/huCYP3A4/3A7 mice treated with RIF
[10] = target: T1, PXR (Homo sapiens, UniProt O75469); test: PXR-transactivation assay in DPX2 cells
T1 sequence (O75469 1-434): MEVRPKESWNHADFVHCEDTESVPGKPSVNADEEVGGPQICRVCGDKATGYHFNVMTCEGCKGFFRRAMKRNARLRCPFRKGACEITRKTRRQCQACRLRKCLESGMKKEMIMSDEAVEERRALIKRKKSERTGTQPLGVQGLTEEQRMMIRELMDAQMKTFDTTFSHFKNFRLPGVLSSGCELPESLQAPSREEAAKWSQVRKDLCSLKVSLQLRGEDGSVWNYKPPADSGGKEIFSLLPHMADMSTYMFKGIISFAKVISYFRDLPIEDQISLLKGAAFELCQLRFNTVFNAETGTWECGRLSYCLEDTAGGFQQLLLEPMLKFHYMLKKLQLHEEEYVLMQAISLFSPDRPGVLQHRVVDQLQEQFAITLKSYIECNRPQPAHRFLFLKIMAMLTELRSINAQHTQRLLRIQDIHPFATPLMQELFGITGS

[11] = target: T2, CYP2C9 (Homo sapiens, UniProt P11712); test: in vitro; conditions: recombinant CYP2C9, pH 7.4
[12] = test system: BRAF^V600E-positive metastatic melanoma; conditions: single agent, all patients with BRAF V600E-positive metastatic melanoma; cited from earlier work
[13] = test system: Cyp1a; test: Western blot of hepatic microsomal Cyp1a; type: in vivo, mouse; conditions: huPXR/huCAR/huCYP3A4/3A7 mice, MBP vemurafenib 100 mg/kg b.i.d. four days
[14] = test system: CYP3A4; conditions: patients at steady state; cited from earlier work
[15] = crystalline form, physiological pH; cited from earlier work
[16] = test system: ABCB1; conditions: MDCK-ABCB1 cell line; cited from earlier work
[17] = test system: COLO205 xenografts; conditions: cited from earlier work
[18] = Apparent kinetics of OH-vemurafenib formation in MLM; type: in vitro ADME, mouse; conditions: Hill equation fit
[19] = Microsomal stability in pooled human liver microsomes; type: in vitro ADME; conditions: 1 μM, 0.2 mg/mL pooled HLM, presence and absence of NADPH, up to 50 min
[20] = test system: CYP3A4; test: TaqMan RT-PCR of small intestinal CYP3A4 mRNA; type: in vivo, mouse; conditions: MBP vemurafenib 100 mg/kg b.i.d. four days
[21] = read-out: Cmax (mean) in patients at steady state; cited from earlier work
[22] = target: T3, CYP3A4 (Homo sapiens, UniProt P08684)
Target sequence in this assay (P08684 whole entry): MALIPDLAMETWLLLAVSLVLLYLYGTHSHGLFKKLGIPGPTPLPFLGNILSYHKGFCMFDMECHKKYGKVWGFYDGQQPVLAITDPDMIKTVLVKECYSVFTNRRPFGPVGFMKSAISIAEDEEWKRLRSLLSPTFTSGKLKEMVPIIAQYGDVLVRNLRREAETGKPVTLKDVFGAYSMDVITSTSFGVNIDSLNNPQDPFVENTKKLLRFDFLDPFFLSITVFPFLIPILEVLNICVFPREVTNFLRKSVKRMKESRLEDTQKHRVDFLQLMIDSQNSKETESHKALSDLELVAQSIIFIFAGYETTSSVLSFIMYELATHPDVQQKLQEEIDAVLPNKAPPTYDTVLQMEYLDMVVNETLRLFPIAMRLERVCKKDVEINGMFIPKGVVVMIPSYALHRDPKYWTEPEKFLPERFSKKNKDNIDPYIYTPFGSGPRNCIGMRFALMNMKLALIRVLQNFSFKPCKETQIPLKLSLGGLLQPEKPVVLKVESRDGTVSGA

[23] = cited from earlier work
[24] = Vemurafenib pharmacokinetics in huPXR/huCAR mice; type: in vivo; conditions: male, mouse, whole blood, po, 50 mg/kg, AUCall of vemurafenib, RIF pre-treatment, Figure 3A
[25] = test system: CYP2D6; conditions: patients at steady state; cited from earlier work
[26] = target: T2, CYP2C9; conditions: 60 μM compound, 400 pmol/mL enzyme, 15 min
[27] = test system: CYP1A2; conditions: patients at steady state; cited from earlier work
[28] = Apparent kinetics of OH-vemurafenib formation in HLM; type: in vitro ADME, human
[29] = test system: DPX2 cells; test: Toxicity in DPX2 cells in the PXR-transactivation assay; type: cell-based; conditions: top two concentrations (41.67 and 125 μM), 48 hours
[30] = type: in vivo; conditions: huPXR/huCAR/huCYP3A4/3A7, mouse, whole blood, po, 100 mg/kg
[31] = target: T3, CYP3A4; test: biochemical
Target sequence in this assay (P08684 2-503): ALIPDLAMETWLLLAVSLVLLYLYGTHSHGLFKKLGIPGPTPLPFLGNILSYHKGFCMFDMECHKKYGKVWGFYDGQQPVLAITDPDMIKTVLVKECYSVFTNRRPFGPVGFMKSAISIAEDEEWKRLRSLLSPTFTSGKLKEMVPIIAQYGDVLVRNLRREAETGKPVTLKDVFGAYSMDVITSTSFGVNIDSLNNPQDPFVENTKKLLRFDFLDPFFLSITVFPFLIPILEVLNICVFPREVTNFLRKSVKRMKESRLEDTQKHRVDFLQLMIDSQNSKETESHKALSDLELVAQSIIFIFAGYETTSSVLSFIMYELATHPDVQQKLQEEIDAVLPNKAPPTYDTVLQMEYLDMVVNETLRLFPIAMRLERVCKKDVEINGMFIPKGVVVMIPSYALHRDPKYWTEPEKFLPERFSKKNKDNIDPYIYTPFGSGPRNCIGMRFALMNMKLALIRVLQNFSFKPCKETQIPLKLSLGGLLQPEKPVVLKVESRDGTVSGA

[32] = huPXR/huCAR/huCYP3A4/3A7 mice treated with RIF
[33] = MBP vemurafenib 100 mg/kg b.i.d. four days

T2 sequence (P11712 whole entry): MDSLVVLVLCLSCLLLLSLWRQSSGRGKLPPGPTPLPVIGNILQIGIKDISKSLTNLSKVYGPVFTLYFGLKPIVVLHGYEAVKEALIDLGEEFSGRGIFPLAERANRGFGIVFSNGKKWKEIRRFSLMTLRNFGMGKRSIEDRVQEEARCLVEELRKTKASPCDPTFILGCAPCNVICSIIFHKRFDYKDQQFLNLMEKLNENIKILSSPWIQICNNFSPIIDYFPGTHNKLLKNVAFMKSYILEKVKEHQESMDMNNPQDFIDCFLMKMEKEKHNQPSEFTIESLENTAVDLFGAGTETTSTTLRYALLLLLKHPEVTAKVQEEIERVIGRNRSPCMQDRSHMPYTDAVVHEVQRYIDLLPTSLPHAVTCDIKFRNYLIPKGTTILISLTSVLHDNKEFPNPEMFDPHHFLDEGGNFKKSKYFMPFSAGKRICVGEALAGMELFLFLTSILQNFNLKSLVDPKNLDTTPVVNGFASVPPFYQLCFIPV

## CCC1(c2ccccc2)C(=O)NC(=O)NC1=O [PB, Phenobarbital]
[1]; PB 80 mg/kg i.p. for three days, huPXR/huCAR/huCYP3A4/3A7 mice
  Effect of PB pre-treatment on vemurafenib kinetic parameters: no effect
[2]
  Hepatic Cyp2b / Cyp2b10 protein (Western blot): induction
[3]; mouse, in vivo
  Hepatic CYP3A4 protein (Western blot): weakly inducing

## CC(=O)[C@H]1[C@H](C#N)C[C@H]2[C@@H]3CC=C4C[C@@H](O)CC[C@]4(C)[C@H]3CC[C@@]21C [PCN, 5-pregnenolone-3β-ol-20-one-16α-carbonitrile]
[4]; PCN 10 mg/kg i.p. three days, Cyp3a null and huCYP3A4/3A7 animals
  Effect of PCN pre-treatment on vemurafenib clearance: enhanced clearance equally well
[3]; huCYP3A4/3A7 mice, PCN three days
  Hepatic CYP3A4 protein (Western blot): effectively induced

## COc1cc2c(cc1OC)CN(CCc1ccc(NC(=O)c3cccc4c(=O)c5cccc(OC)c5[nH]c34)cc1)CC2 [elacridar, Elacridar hydrochloride]
[5]
  Inhibition of SLCO1B1: known to inhibit

## CC(=O)N1CCN(c2ccc(OCC3COC(Cn4ccnc4)(c4ccc(Cl)cc4Cl)O3)cc2)CC1 (stereo not drawn) [ketoconazole]
[6]
  Inhibition of OH-vemurafenib formation: significantly inhibited

## CO[C@H]1/C=C/O[C@@]2(C)Oc3c(C)c(O)c4c(O)c(c(/C=N/N5CCN(C)CC5)c(O)c4c3C2=O)NC(=O)/C(C)=C\C=C\[C@H](C)[C@H](O)[C@@H](C)[C@@H](O)[C@@H](C)[C@H](OC(C)=O)[C@@H]1C [rifampicin]
[7]; [32]
  Increase in mRNA for Abcb1a in the small intestine: 4.7 fold
[8]; [32]
  Change in mRNA for Abcb1b in the small intestine: no change
[9]
  Change in mRNA for Abcg2 in the small intestine: no change

## Nc1ccc(S(=O)(=O)Nc2ccnn2-c2ccccc2)cc1 [sulfaphenazole]
[6]
  Inhibition of OH-vemurafenib formation: partial decrease; also recorded: small but statistically significant decrease

## CCCS(=O)(=O)Nc1ccc(F)c(C(=O)c2c[nH]c3ncc(-c4ccc(Cl)cc4)cc23)c1F [vemurafenib, Vemurafenib]
[10]
  EC50: 8.13 µM
[10]; DPX2 cells, 48 hours, fold change vs vehicle control
  EMAX of PXR activation: 8.54 fold
[4]; vemurafenib 50 mg/kg oral after PCN for three days
  Decrease in Cmax and AUCall and increase in CL in huCYP3A4/3A7 PCN group relative to Cyp3aKO/Cyp3a13+/+ PCN group: not statistically significant
[11]
  Km at 0.15 h: 20.4 ± 1.7 µM
[12]
  Objective tumour response: 48%
[7]; [33]
  Change in small intestinal Abcb1a mRNA expression: no change
[13]
  Hepatic Cyp1a protein (Western blot): moderate induction
[1]; male, huPXR/huCAR/huCYP3A4/3A7, mouse, whole blood, po, 50 mg/kg, RIF alone, Figure 5A
  AUC: 90 ± 13 µg·h/mL
[1]; male, huPXR/huCAR/huCYP3A4/3A7, mouse, whole blood, po, 50 mg/kg, huPXR/huCAR/huCYP3A4/3A7 mice, RIF pre-treatment, Figure 3A
  AUC: 121 ± 18 µg·h/mL
[1]; male, huPXR/huCAR/huCYP3A4/3A7, mouse, whole blood, po, 50 mg/kg, huPXR/huCAR/huCYP3A4/3A7 mice, vehicle pre-treatment, Figure 3A
  AUC: 432 ± 169 µg·h/mL
[1]; male, huPXR/huCAR/huCYP3A4/3A7, mouse, whole blood, po, 50 mg/kg, vehicle (CO) alone, Figure 5A
  AUC: 391 ± 112 µg·h/mL
[1]; male, huPXR/huCAR/huCYP3A4/3A7, mouse, whole blood, po, 50 mg/kg, vehicle (CO) then elacridar, Figure 5A
  AUC: 684 ± 85 µg·h/mL
[1]; male, huPXR/huCAR/huCYP3A4/3A7, mouse, whole blood, po, 50 mg/kg, Cmax of vemurafenib, vehicle (CO) then elacridar, Figure 5A
  Cmax: 37800 ± 3500 ng/mL
[2]
  Hepatic Cyp2b / Cyp2b10 protein (Western blot): weak induction
[14]
  Decrease in AUC0-last of the CYP3A4-specific probe midazolam: 39%
[15]
  Aqueous solubility: 0.01 to 10 µg/mL
[8]; [33]
  Change in small intestinal Abcb1b mRNA expression: no change
[16]
  ABCB1 interaction: both an ABCB1 substrate and inhibitor
[17]
  AUC0-24 necessary to effect regression of COLO205 xenografts: 300 µM·h
[18]
  S50 of OH-vemurafenib formation: 23.8 ± 4.9 µM
  Vmax of OH-vemurafenib formation: 467 ± 54 peak area/min/mg
[19]
  Metabolic stability: highly stable
[20]
  Change in small intestinal CYP3A4 mRNA expression: no change
[21]
  Cmax: 86 ± 32 µM
[22]; 60 μM compound, 400 pmol/mL enzyme, 15 min
  Generation of OH-vemurafenib by recombinant CYP: formed
[22]; S50 CYP3A4 vs CYP2C9
  Affinity for vemurafenib, CYP3A4 relative to CYP2C9: 2 fold
[23]; 0 – 48 hr period
  Recovered radioactivity in the parental form: ≥ 94%
[23]; 48 – 96 hr period
  Recovered radioactivity in the parental form: 55.5 ± 20.1%
[23]
  Time for 95% of the radioactive dose to be recovered: 18 days
  Total dose recovered within the first 96 hours: 68.5%
[23]; over 18 days
  Radioactive dose recovered in faeces: 94%
  Radioactive dose recovered in urine: 1%
[24]
  AUC: 75 ± 33 µg·h/mL
[25]
  Increase in AUC0-last of the CYP2D6 probe dextromethorphan: 47%
[26]
  Generation of OH-vemurafenib by recombinant CYP: formed
[27]
  Increase in AUC0-last of the CYP1A2 probe caffeine: 160%
[3]; huPXR/huCAR/huCYP3A4/3A7 mice
  Hepatic CYP3A4 protein (Western blot): weak induction
[28]; HLM vs MLM
  Vmax for HLM relative to MLM: approximately 10 fold
[28]; HLM, Hill equation fit
  S50 of OH-vemurafenib formation: 23.2 ± 0.8 µM
  Vmax of OH-vemurafenib formation: 4879 ± 108 peak area/min/mg
[29]
  Toxicity to DPX2 cells: highly toxic
[30]
  AUC: 1140 ± 242 µM·h
  Cmax: 122 ± 19.7 µM
[31]
  IC50: 14.9 µM

## monohydroxy-vemurafenib [OH-vemurafenib]
[23]; 48 – 96 hr samples
  OH-vemurafenib as share of the total dose: 3.4%
  OH-vemurafenib share of recovered radioactivity: 13.7%
